This is an account of results in patent US8242275B2, “Bicyclic pyrazole compounds as antibacterial agents” (Janssen Pharmaceutica NV, priority 2005, dated 2012).

The test system of one assay is S. aureus ATCC13709. As to the kind of experiment: In vitro antibacterial activity (MIC assay), broth microdilution. The assay is classed as cell-based. Put shortly: (§1)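 Bacteria at roughly 5×10^5 CFU/mL final were grown 16–24 h at 35° C in wells holding 2-fold serial dilutions (11 points) of compound prepared in 100% DMSO, following NCCLS M7-A5. MIC, in μg/mL, is the concentration that stops visible growth relative to untreated wells.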
(In general: Dilution methods test growth across graded concentrations, often in twofold steps.)

The subject of the next assay is S. pneumoniae ATCC49619. Described as above. It counts as cell-based. Particulars: Streptococcus pneumoniae, ATCC49619; read-out: S. pneumoniae ATCC49619 MIC. In short, it runs like this: as §1
Assay [1] deals with E. coli KL-16 (GSC strain 4245). The description is as above. The assay is classed as cell-based. Particulars: Escherichia coli. In short, it runs like this: as §1
In another assay the target is T1, E. coli topoisomerase IV (Escherichia coli, UniProt P0AFI2+P20083).
T1 construct: purchased John Innes Enterprises Ltd. (John Innes Centre, UK)
T1 sequence (P0AFI2 whole entry): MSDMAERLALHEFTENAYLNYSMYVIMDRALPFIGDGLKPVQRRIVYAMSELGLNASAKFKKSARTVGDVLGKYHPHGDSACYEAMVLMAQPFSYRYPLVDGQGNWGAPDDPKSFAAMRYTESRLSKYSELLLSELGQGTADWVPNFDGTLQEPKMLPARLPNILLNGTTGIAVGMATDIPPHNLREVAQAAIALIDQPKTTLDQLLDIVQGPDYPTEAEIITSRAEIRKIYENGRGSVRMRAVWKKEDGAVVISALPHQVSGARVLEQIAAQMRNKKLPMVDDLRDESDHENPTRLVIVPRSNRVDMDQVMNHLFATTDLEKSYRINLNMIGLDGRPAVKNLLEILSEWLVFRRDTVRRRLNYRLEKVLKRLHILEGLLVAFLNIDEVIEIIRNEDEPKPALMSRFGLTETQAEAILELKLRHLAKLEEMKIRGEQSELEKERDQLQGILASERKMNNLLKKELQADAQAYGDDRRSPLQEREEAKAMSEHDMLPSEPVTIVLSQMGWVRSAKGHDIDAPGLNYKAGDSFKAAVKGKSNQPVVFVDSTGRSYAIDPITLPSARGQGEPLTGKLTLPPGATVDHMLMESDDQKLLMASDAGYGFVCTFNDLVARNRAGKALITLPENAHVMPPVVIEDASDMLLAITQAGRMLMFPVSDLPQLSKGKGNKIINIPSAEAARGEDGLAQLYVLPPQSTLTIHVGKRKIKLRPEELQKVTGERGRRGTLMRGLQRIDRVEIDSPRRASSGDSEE
T1 sequence (P20083 whole entry): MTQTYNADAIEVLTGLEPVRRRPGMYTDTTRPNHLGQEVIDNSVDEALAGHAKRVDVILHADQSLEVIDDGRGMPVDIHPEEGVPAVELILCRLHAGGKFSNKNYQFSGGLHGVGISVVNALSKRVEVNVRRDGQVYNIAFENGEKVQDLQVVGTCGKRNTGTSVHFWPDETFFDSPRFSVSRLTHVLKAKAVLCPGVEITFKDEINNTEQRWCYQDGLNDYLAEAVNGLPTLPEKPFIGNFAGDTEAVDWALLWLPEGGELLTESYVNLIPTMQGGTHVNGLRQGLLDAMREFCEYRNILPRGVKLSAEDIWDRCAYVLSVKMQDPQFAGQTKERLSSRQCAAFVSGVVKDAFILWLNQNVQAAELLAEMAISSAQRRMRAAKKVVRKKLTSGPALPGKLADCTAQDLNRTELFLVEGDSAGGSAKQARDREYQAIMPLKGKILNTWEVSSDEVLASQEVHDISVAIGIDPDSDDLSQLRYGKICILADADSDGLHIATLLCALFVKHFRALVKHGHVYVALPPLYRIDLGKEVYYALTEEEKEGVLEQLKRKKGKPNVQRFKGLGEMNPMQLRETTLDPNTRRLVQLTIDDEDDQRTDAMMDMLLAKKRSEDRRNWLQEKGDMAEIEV
As to the kind of experiment: Topoisomerase IV inhibition assay (relaxation). It counts as biochemical. Particulars: E. coli topoisomerase IV relaxation, visual inspection of gels; read-out: Topoisomerase IV IC50 (converted). The procedure:
Inhibition of the relaxation activity of E. coli topoisomerase IV was determined using enzyme, buffers and substrates received from John Innes Enterprises Ltd. (John Innes Centre, UK). The reactions were performed according to the manufacturer's directions, with the following modifications.
DNA relaxation reactions were carried out in a total reaction volume of 20 μL, containing 300 ng of supercoiled pBR322, 40 mM HEPES-KOH (pH 7.6), 100 mM potassium glutamate, 10 mM Mg(OAc)2, 10 mM DTT, 4 μg/mL tRNA, 2 mM ATP, and 50 μg/mL BSA. Compounds, diluted in 10% DMSO, were added to the reaction mixture to reach a final concentration of 0.5% DMSO. Enzyme was diluted to 0.45 unit/μL in a solution of 40 mM HEPES-KOH (pH 7.6), 150 mM potassium glutamate, 1 mM DTT, 1 mM EDTA, and 40% glycerol. Diluted enzyme (0.9 unit) was added to each reaction.
The reactions were incubated at 37° C. for 45 min. The reactions were then cooled to 0° C. followed by addition of 3 μL of 40% glycerol, 100 mM Tris-HCl (pH 7.5), 50 mM EDTA, 0.5% SDS and 0.1% bromophenol blue. Samples were separated on 1.0% agarose gels. Gels were stained with Ethidium bromide and photographed with a Stratagene Eagle Eye II.

A further assay has as its target T2, E. coli DNA gyrase (Escherichia coli, UniProt P0AES4+P0AES6).
T2 construct: purchased John Innes Enterprises Ltd. (John Innes Centre, UK)
As to the kind of experiment: DNA gyrase inhibition assay (supercoiling). The assay is classed as biochemical. Particulars: E. coli DNA gyrase supercoiling, visual inspection of gels; read-out: DNA Gyrase IC50 (converted). In short, it runs like this:
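Agarose-gel (1.0%, ethidium-stained) readout of supercoiled versus relaxed pBR322 after 30 min at 37° C. Each reaction held 250 ng DNA, 0.2 unit enzyme, 1 mM ATP, 4 mM MgCl2, 24 mM KCl in 35 mM Tris-HCl pH 7.5, and compound at 0.5% DMSO final.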

[2] abbreviates: Staphylococcus aureus, ATCC13709; read-out: S. aureus ATCC13709 MIC.

Converted amounts (≈) assume the structure as drawn. Like-named read-outs stand apart in the source and are kept apart here.

T2 sequence (P0AES4 whole entry, one chain of several): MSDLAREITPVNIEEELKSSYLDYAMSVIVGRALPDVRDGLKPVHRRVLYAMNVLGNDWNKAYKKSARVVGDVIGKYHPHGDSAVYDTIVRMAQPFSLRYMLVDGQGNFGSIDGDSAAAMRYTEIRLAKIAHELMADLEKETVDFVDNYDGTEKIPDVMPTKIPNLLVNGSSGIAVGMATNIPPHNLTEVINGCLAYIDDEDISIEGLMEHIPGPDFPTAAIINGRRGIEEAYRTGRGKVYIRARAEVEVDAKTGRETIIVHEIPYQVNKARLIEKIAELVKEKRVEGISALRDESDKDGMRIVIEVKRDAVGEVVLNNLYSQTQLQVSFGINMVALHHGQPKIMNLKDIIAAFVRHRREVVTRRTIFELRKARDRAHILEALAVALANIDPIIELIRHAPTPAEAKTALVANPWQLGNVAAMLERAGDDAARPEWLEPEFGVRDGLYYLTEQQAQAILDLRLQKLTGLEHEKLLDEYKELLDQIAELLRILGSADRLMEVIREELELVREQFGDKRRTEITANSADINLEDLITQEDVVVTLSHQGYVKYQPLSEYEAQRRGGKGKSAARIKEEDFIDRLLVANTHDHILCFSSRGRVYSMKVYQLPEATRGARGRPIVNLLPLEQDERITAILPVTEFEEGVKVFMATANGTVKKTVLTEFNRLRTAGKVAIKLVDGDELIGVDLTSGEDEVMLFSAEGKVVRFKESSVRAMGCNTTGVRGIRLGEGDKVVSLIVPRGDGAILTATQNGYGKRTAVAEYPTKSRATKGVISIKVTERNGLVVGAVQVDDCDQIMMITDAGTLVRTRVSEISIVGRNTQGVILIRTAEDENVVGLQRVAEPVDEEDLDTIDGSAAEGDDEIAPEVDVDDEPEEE

For orientation: MIC means the lowest concentration found to suppress growth. A word on the IC50: it is the concentration needed to halve the response being measured. Turning to `COc1ccc2nccc(-n3cc4c(n3)CCC(NCc3ccc5c(c3)OC(F)(F)O5)C4)c2n1` (stereo not shown) [Example 38, (2,2-Difluoro-benzo[1,3]dioxol-5-ylmethyl)-[2-(6-methoxy-[1,5]naphthyridin-4-yl)-4,5,6,7-tetrahydro-2H-indazol-5-yl]-amine], the MIC with S. aureus ATCC13709 (setting [2]) was 0.25 µg/mL (≈ 0.537 µM); in the assay with S. pneumoniae ATCC49619 it was 4 µg/mL (≈ 8.59 µM); in assay [1], more than 128 µg/mL. The figures for the half-inhibitory concentration (IC50) at E. coli topoisomerase IV and on E. coli DNA gyrase were 537 nM and 4300 nM, respectively.
The matching figures for `COc1ccc2nccc(-n3cc4c(n3)CCC(NC(=O)c3cc5c(cc3Br)SCC(=O)N5)C4)c2n1` (stereo not shown) [Example 113, 7-Bromo-3-oxo-3,4-dihydro-2H-benzo[1,4]thiazine-6-carboxylic acid [2-(6-methoxy-[1,5]naphthyridin-4-yl)-4,5,6,7-tetrahydro-2H-indazol-5-yl]-amide]: 0.125 µg/mL (≈ 0.221 µM), 2 µg/mL (≈ 3.54 µM), 2 µg/mL (≈ 3.54 µM), 442 nM and 442 nM.
With `COc1ccc2nccc(-n3cc4c(n3)CCC(NCc3ccc5c(c3)OCCO5)C4)c2n1` (stereo not shown) [Example 42, (2,3-Dihydro-benzo[1,4]dioxin-6-ylmethyl)-[2-(6-methoxy-[1,5]naphthyridin-4-yl)-4,5,6,7-tetrahydro-2H-indazol-5-yl]-amine], the results for the MIC (in the assay on S. aureus ATCC13709 (setting [2]); in the assay with S. pneumoniae ATCC49619; in assay [1]) were 0.03 µg/mL (≈ 0.0676 µM), 0.5 µg/mL (≈ 1.13 µM) and 32 µg/mL (≈ 72.2 µM), respectively. Also, the concentration for half-maximal inhibition (IC50) was 564 nM at E. coli topoisomerase IV and 2250 nM at E. coli DNA gyrase.
With `COc1ccc2nccc(-n3cc4c(n3)CCC(NCC(=O)Nc3cc(F)cc(F)c3)C4)c2n1` (stereo not shown) [Example 58, N-(3,5-Difluoro-phenyl)-2-[2-(6-methoxy-[1,5]naphthyridin-4-yl)-4,5,6,7-tetrahydro-2H-indazol-5-ylamino]-acetamide], the MIC came to 0.25 µg/mL (≈ 0.538 µM) in the assay with S. aureus ATCC13709 (setting [2]), 4 µg/mL (≈ 8.61 µM) with S. pneumoniae ATCC49619 and 16 µg/mL (≈ 34.4 µM) in assay [1]. For the same compound, the half-inhibitory concentration (IC50) at E. coli topoisomerase IV was 34.4 nM; on E. coli DNA gyrase, 2150 nM.
In the same order, the values of `COc1ccc2nccc(-n3cc4c(n3)CCC(NC(=O)c3ccc5c(c3)OCCO5)C4)c2n1` (stereo not shown) [Example 1, 2,3-Dihydro-benzo[1,4]dioxine-6-carboxylic acid [2-(6-methoxy-[1,5]naphthyridin-4-yl)-4,5,6,7-tetrahydro-2H-indazol-5-yl]-amide] are 0.5 µg/mL (≈ 1.09 µM), 8 µg/mL (≈ 17.5 µM), more than 128 µg/mL, more than 2190 nM and more than 69900 nM.
The matching figures for `COc1ccc2nccc(-n3cc4c(n3)CCC(NC(=O)c3cnc5ccccc5n3)C4)c2n1` (stereo not shown) [Example 70, Quinoxaline-2-carboxylic acid [2-(6-methoxy-[1,5]naphthyridin-4-yl)-4,5,6,7-tetrahydro-2H-indazol-5-yl]-amide]: 2 µg/mL (≈ 4.43 µM), 32 µg/mL (≈ 70.9 µM), more than 128 µg/mL, more than 2210 nM and more than 70900 nM.
In the same order, the values of `COc1ccc2nccc(-n3cc4c(n3)CCC(NCc3ccc5c(c3)NCCS5)C4)c2n1` (stereo not shown) [Example 36, (3,4-Dihydro-2H-benzo[1,4]thiazin-6-ylmethyl)-[2-(6-methoxy-[1,5]naphthyridin-4-yl)-4,5,6,7-tetrahydro-2H-indazol-5-yl]-amine] are less than 0.125 µg/mL, 0.25 µg/mL (≈ 0.545 µM), 8 µg/mL (≈ 17.4 µM), 65.4 nM and 1090 nM.
As for `COc1ccc2nccc(-n3cc4c(n3)CCC(NCc3ccc5c(n3)NC(=O)CO5)C4)c2c1` (stereo not shown) [Example 54, 6-{[2-(6-Methoxy-quinolin-4-yl)-4,5,6,7-tetrahydro-2H-indazol-5-ylamino]-methyl}-4H-pyrido[3,2-b][1,4]oxazin-3-one], the MIC stood at 1 µg/mL (≈ 2.19 µM) in the assay with S. aureus ATCC13709 (setting [2]), 2 µg/mL (≈ 4.38 µM) in the assay with S. pneumoniae ATCC49619 and 2 µg/mL (≈ 4.38 µM) in assay [1]. For the same compound, the IC50 on E. coli topoisomerase IV is 35 nM; at E. coli DNA gyrase, 131 nM.
Regarding `COc1ccc2nccc(-n3cc4c(n3)CCC(NC(=O)C3(c5ccc(Cl)cc5)CCCC3)C4)c2c1` (stereo not shown) [Example 80, 1-(4-Chloro-phenyl)-cyclopentanecarboxylic acid [2-(6-methoxy-quinolin-4-yl)-4,5,6,7-tetrahydro-2H-indazol-5-yl]-amide], the MIC is 8 µg/mL (≈ 16 µM) in the assay on S. aureus ATCC13709 (setting [2]), 128 µg/mL (≈ 255 µM) in the assay with S. pneumoniae ATCC49619 and more than 128 µg/mL in assay [1]. The IC50 at E. coli topoisomerase IV was more than 2000 nM; at E. coli DNA gyrase, more than 31900 nM.
The matching figures for `COc1ccc2nccc(-n3cc4c(n3)CCC(NCc3cc5c(cc3F)SCC(=O)N5)C4)c2c1` (stereo not shown) [Example 53, 7-Fluoro-6-{[2-(6-methoxy-quinolin-4-yl)-4,5,6,7-tetrahydro-2H-indazol-5-ylamino]-methyl}-4H-benzo[1,4]thiazin-3-one]: 0.25 µg/mL (≈ 0.511 µM), 2 µg/mL (≈ 4.09 µM), 4 µg/mL (≈ 8.17 µM), 32.7 nM and 1020 nM.
With `O=C1CSc2ccc(C(=O)NC3CCc4nn(-c5cccc6ccccc56)cc4C3)cc2N1` (stereo not shown) [Example 34, 3-Oxo-3,4-dihydro-2H-benzo[1,4]thiazine-6-carboxylic acid (2-naphthalen-1-yl-4,5,6,7-tetrahydro-2H-indazol-5-yl)-amide], the minimal inhibitory concentration (MIC) was 0.5 µg/mL (≈ 1.1 µM) with S. aureus ATCC13709 (setting [2]), 8 µg/mL (≈ 17.6 µM) in the assay on S. pneumoniae ATCC49619 and more than 128 µg/mL in assay [1]. Moreover, the IC50 on E. coli topoisomerase IV was 275 nM; on E. coli DNA gyrase it was 4400 nM.
In the case of `COc1ccc2nccc(-n3cc4c(n3)CCC(NC(=O)c3cc5c(cc3Br)SCC(=O)N5)C4)c2c1` (stereo not shown) [Example 114, 7-Bromo-3-oxo-3,4-dihydro-2H-benzo[1,4]thiazine-6-carboxylic acid [2-(6-methoxy-quinolin-4-yl)-4,5,6,7-tetrahydro-2H-indazol-5-yl]-amide], the MIC in the assay on S. aureus ATCC13709 (Staphylococcus aureus, ATCC13709, read-out: S. aureus ATCC13709 MIC) was 0.125 µg/mL (≈ 0.221 µM); in the assay on S. pneumoniae ATCC49619 it was 2 µg/mL (≈ 3.54 µM); in assay [1], 2 µg/mL (≈ 3.54 µM). Moreover, the values for the half-maximal inhibitory concentration (IC50) on E. coli topoisomerase IV and on E. coli DNA gyrase were 221 nM and 886 nM, respectively.
In the case of `COc1ccc2nccc(-n3cc4c(n3)CCC(NC(=O)c3cc5c(cc3C(F)(F)F)SCC(=O)N5)C4)c2c1` (stereo not shown) [Example 115, 3-Oxo-7-trifluoromethyl-3,4-dihydro-2H-benzo[1,4]thiazine-6-carboxylic acid [2-(6-methoxy-quinolin-4-yl)-4,5,6,7-tetrahydro-2H-indazol-5-yl]-amide], the MIC in the assay with S. aureus ATCC13709 (setting [2]) amounted to 0.125 µg/mL (≈ 0.226 µM); with S. pneumoniae ATCC49619, 8 µg/mL (≈ 14.5 µM); in assay [1] it was 8 µg/mL (≈ 14.5 µM). The IC50 on E. coli topoisomerase IV is 452 nM; at E. coli DNA gyrase, 1810 nM.
`COc1ccc2nccc(-n3cc4c(n3)CCC(NC/C=C/c3ccccc3[N+](=O)[O-])C4)c2n1` (stereo not shown) [Example 89, [2-(6-Methoxy-[1,5]naphthyridin-4-yl)-4,5,6,7-tetrahydro-2H-indazol-5-yl]-[3-(2-nitro-phenyl)-allyl]-amine]: the MIC with S. aureus ATCC13709 (setting [2]) was found to be 2 µg/mL (≈ 4.38 µM); with S. pneumoniae ATCC49619 it was 2 µg/mL (≈ 4.38 µM); in assay [1] it was 16 µg/mL (≈ 35 µM). The half-maximal inhibitory concentration (IC50) is 32.9 nM at E. coli topoisomerase IV and 274 nM on E. coli DNA gyrase.
In the case of `COc1ccc2nccc(-n3cc4c(n3)CCN(CC(=O)c3ccc5c(c3)NC(=O)CO5)C4)c2c1` [Example 64, 6-{2-[2-(6-Methoxy-quinolin-4-yl)-2,4,6,7-tetrahydro-pyrazolo[4,3-c]pyridin-5-yl]-acetyl}-4H-benzo[1,4]oxazin-3-one], the MIC with S. aureus ATCC13709 (setting [2]) was 4 µg/mL (≈ 8.52 µM); with S. pneumoniae ATCC49619 it was 128 µg/mL (≈ 273 µM); in assay [1] it was 64 µg/mL (≈ 136 µM). Also, the IC50 at E. coli topoisomerase IV was 532 nM; on E. coli DNA gyrase, more than 8520 nM.
In the same order, the values of `COc1ccc2nccc(-n3cc4c(n3)CCC(NCc3cc5c(cc3Cl)OCCO5)C4)c2c1` (stereo not shown) [Example 103, (7-Chloro-2,3-dihydro-benzo[1,4]dioxin-6-ylmethyl)-[2-(6-methoxy-quinolin-4-yl)-4,5,6,7-tetrahydro-2H-indazol-5-yl]-amine] are 0.5 µg/mL (≈ 1.05 µM), 4 µg/mL (≈ 8.39 µM), 32 µg/mL (≈ 67.1 µM), 524 nM and 4190 nM.
Turning to `COc1ccc2nccc(-n3cc4c(n3)CCC(NCc3ccc5c(c3)OCO5)C4)c2n1` (stereo not shown) [Example 37, Benzo[1,3]dioxol-5-ylmethyl-[2-(6-methoxy-[1,5]naphthyridin-4-yl)-4,5,6,7-tetrahydro-2H-indazol-5-yl]-amine], the minimum inhibitory concentration (MIC) was 0.5 µg/mL (≈ 1.16 µM) in the assay on S. aureus ATCC13709 (setting [2]), 2 µg/mL (≈ 4.66 µM) with S. pneumoniae ATCC49619 and 32 µg/mL (≈ 74.5 µM) in assay [1]. Besides, the IC50 on E. coli topoisomerase IV and at E. coli DNA gyrase was 582 nM in each case.
